Consider one molecule from patent US20170157192A1, “USE OF THE CHINESE MEDICINE COMPOSITION AND DIANXIANNING IN THE PREPARATION OF A MEDICAMENT FOR PREVENTING OR TREATING ALZHEIMER'S DISEASES” (Lanzhou University, priority 2014, published 2017).

The structures appear in SMILES notation. Counter-ions that a name gives are not always drawn.

Series [1] deals with transgenic C. elegans strain CL4176 expressing human Aβ. Description: Aβ-induced paralysis in transgenic C. elegans strain CL4176. Conditions: Example 2, FIG. 1, dose-dependent. The class given is in vivo, Caenorhabditis elegans. From the text:
The present invention employed the transgenic C. elegans strain CL4176 as a pathological model to evaluate the effect of the Chinese medicine and DXN on preventing or treating AD. The principle of Aβ theory of AD is based on that Aβ aggregates in the cerebral cortex and hippocampus and subsequently forms senile plaques (SP), which is one of the most major pathological features of AD. Toxic Aβ can effectively weaken the structure and function of synapses, and cause memory impairment on the AD patients. Transgenic C. elegans strain CL4176 which expresses the human Aβ species in the muscle tissue that can induce Aβ-dependent paralysis at 25° C. was used in the present invention. Aβ aggregates in the muscle tissue, eventually resulting in the paralysis of CL4176. The medicament acts on C. elegans strain CL4176.
(1) C. elegans CL4176 is purchased from Caenorhabditis Genetics Center; which is a transgenic strain and muscle-specific expression of human Aβ can be induced at 25° C., and Aβ is aggregated in muscle tissue, resulting in the paralysis of C. elegans. CL4176 worm was used in the invention as a pathological model to screen and evaluate the anti-AD actions of the Chinese medicine compositions and DXN.
The synchronized C. elegans eggs were placed onto solid NGM coated with OP50 and containing different concentration of Memantine Hydrochloride. The blank control is a NMG medium coated with OP50 and added with the same volume of ddH2O to replace the Memantine Hydrochloride. The worms were cultured at 16° C. for 3 days to L3 larvae (about 60 worms per plate). The results are presented as the average of three biological replicates.
In order to induce the Aβ expression, the culture temperature of transgenic L3 larvae C. elegans CL4176 was shifted from 16° C. to 25° C. for 34 h. Then paralysis individuals were counted under a dissecting stereo microscope at 2 h intervals until all worms became paralyzed.
The synchronized C. elegans eggs were placed onto solid NGM coated with OP50 and containing working concentration of the Chinese medicine compositions. […]

Series [2] has the same test system. Conditions: 2.16 mg/mL; it has been reported; cited from earlier work.
The next series relates to C. elegans CL4176. Description: Toxicity on growth and development (body length) of C. elegans. The class given is in vivo, Caenorhabditis elegans. Conditions: Example 2, FIG. 1. Here is the method: C. elegans are sensitive to environmental changes, and drug toxicity can be accurately evaluated by using C. elegans. The body length is one of the most commonly used indictors of developmental toxicity.
After the end of paralysis experiment, worms were immediately placed at 50° C. for 15 min to straighten the body of every worm. The worms were observed and photographed under a microscope, and measured the length of every worm using MvImage system.

As to `CC12CC3CC(C)(C1)CC(N)(C3)C2` [Menantine Hydrochloride, 1-amino-3,5-dimethyl amantadine hydrochloride], the “delay of Aβ-induced paralysis of CL4176” value in series [1] (4.32 μg/mL in NGM), in series [1] (0.86m/mL in NGM) and in series [1] (21.58m/mL in NGM) was “significantly delayed the paralysis” in each case. Besides, the “delay of Aβ-induced paralysis in transgenic CL4176 (reported)” value in series [2] is “significantly delay Aβ-induced paralysis”. Besides, the “inhibition of development of C. elegans” value in the series on C. elegans CL4176 (107.88 m/mL in NGM) and in the series with C. elegans CL4176 (215.76 m/mL in NGM) was “strongly inhibit the development” each time.
